# Activity calls are given as the source filed them. The rule behind the calls is not given here.
# How the values were obtained:
# Integrin alpha-4/beta-1 [1] = biological target: T1, Integrin alpha-4/beta-1 (Homo sapiens, UniProt P05556+P13612); experiment: Binding affinity to human VLA4 alpha4beta1 in Jurkat cells; assay type: cell-based
# Integrin alpha-4/beta-1 [2] = biological target: T1, Integrin alpha-4/beta-1; experiment: Displacement of [125I]VCAM-Ig from human VLA4 alpha-4-beta-1 in Jurkat cells at 100 uM; assay type: cell-based
# [3] = Half life in Sprague-Dawley rat plasma at 1 mg/kg, iv by cassette-dosing assay; assay type: ADME, organism-based; set-up: dose 1 mg/kg, route intravenous
# Integrin alpha-4/beta-7 = biological target: T2, Integrin alpha-4/beta-7 (Homo sapiens, UniProt P13612+P26010); experiment: Binding affinity to human integrin alpha-4-beta-7 in Jurkat cells; assay type: cell-based
# T2 sequence (P13612 whole entry): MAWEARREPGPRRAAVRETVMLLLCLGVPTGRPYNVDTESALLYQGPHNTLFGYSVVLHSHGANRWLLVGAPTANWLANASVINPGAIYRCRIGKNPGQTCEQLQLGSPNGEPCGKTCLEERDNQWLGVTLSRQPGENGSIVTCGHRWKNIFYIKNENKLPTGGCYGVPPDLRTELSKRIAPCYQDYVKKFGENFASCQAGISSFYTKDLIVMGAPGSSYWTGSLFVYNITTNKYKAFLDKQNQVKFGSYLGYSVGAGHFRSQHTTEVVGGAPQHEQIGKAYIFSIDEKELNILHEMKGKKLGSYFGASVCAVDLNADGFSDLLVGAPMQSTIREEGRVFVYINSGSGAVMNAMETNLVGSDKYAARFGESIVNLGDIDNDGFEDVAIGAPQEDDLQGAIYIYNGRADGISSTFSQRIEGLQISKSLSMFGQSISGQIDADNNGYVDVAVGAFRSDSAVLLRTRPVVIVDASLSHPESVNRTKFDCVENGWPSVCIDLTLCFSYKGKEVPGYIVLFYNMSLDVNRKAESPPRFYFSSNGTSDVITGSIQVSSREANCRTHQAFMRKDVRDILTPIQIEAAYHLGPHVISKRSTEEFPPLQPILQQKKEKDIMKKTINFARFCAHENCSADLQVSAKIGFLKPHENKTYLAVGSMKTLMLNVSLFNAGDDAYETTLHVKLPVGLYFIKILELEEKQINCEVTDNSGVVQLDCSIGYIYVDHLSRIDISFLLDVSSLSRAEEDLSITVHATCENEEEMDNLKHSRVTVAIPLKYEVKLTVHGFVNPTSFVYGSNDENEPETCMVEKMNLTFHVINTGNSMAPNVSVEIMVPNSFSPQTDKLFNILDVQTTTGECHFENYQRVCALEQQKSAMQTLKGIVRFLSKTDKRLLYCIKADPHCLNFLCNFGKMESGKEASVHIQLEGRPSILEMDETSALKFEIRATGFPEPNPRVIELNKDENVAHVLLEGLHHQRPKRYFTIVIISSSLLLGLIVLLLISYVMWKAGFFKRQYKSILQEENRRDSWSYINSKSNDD
# T2 sequence (P26010 whole entry): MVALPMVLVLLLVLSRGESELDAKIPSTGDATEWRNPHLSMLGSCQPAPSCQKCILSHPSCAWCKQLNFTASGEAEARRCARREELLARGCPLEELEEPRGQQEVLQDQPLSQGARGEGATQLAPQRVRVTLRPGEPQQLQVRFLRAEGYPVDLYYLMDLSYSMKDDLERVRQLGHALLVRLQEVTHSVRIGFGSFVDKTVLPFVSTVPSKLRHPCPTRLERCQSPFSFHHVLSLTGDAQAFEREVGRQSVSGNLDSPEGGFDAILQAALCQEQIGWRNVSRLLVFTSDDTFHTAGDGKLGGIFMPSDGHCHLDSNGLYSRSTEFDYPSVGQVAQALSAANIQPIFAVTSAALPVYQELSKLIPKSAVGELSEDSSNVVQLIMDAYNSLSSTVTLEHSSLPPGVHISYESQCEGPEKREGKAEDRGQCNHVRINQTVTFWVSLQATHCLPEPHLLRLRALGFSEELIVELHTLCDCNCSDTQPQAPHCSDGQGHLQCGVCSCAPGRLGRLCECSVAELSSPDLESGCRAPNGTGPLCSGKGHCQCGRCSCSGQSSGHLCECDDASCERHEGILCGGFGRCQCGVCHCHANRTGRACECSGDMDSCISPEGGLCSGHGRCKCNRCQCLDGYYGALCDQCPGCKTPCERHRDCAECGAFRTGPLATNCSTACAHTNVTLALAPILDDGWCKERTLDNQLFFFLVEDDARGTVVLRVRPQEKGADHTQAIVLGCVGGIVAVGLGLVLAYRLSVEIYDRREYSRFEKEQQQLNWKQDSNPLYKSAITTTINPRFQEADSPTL
# [4] = Half life in Sprague-Dawley rat plasma at 2 mg/kg, po by cassette-dosing assay; assay type: ADME, organism-based; set-up: dose 2 mg/kg, route oral
# [5] = Bioavailability in Sprague-Dawley rat at 2 mg/kg, po by cassette-dosing assay; assay type: ADME, organism-based; settings: in vivo
# [6] = Clearance in Sprague-Dawley rat plasma at 1 mg/kg, iv by cassette-dosing assay; assay type: ADME, organism-based; set-up: dose 1 mg/kg, route intravenous
# T1 sequence (P05556 whole entry, one chain of several): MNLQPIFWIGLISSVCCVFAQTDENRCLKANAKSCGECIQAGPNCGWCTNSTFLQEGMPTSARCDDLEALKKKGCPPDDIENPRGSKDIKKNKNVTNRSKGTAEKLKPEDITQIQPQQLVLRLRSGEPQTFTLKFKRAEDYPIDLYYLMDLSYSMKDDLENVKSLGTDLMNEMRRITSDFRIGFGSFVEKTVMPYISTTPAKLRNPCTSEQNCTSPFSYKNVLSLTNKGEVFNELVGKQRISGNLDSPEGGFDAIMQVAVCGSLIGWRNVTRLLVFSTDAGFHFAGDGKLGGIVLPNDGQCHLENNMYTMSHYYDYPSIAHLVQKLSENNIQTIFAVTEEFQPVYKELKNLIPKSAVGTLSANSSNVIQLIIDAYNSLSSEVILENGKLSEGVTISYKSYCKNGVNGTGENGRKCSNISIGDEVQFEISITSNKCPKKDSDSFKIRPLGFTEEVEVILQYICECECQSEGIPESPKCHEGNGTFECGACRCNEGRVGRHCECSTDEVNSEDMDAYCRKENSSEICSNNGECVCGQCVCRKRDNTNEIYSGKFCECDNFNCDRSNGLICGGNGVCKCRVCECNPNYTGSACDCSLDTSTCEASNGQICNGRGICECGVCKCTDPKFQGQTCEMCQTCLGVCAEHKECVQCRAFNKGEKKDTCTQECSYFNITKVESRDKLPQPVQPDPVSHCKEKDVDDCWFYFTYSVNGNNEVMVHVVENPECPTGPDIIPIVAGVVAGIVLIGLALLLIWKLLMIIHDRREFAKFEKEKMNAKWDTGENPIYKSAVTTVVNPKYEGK
IC50 (Integrin alpha-4/beta-1 [1]) [µM],other results,Compound
1.49,,O=C(O)C1C2CCC(C2)[C@H]1NC(=O)[C@@H]1CCCN1S(=O)(=O)c1cc(Cl)cc(Cl)c1 (stereo partly drawn) [listing 1 of 2 here]
0.525,,O=C(O)[C@H]1CCCC[C@@H]1NC(=O)[C@@H]1CCCN1S(=O)(=O)c1cc(Cl)cc(Cl)c1
1.6,,O=C(O)[C@@H]1C2CCC(C2)[C@@H]1NC(=O)[C@@H]1CCCN1S(=O)(=O)c1cc(Cl)cc(Cl)c1 (stereo partly drawn)
,Activity (Integrin alpha-4/beta-1 [2]): 0%,O=C(O)c1ccccc1NC(=O)[C@@H]1CCCN1S(=O)(=O)c1cc(Cl)cc(Cl)c1
0.322,,O=C(O)C1C2CCC(C2)[C@@H]1NC(=O)[C@@H]1CCCN1S(=O)(=O)c1cc(Cl)cc(Cl)c1 (stereo partly drawn) [listing 1 of 2 here]
0.657,,O=C(O)C1C2C=CC(C2)[C@@H]1NC(=O)[C@@H]1CCCN1S(=O)(=O)c1cc(Cl)cc(Cl)c1 (stereo partly drawn) [listing 1 of 2 here]
,Activity (Integrin alpha-4/beta-1 [2]): inactive,O=C(CN(C1CCCCC1)S(=O)(=O)c1cc(Cl)cc(Cl)c1)NC1CCCCC1C(=O)O (stereo not drawn)
25.6,,O=C(O)[C@H]1C2CCC(O2)[C@@H]1NC(=O)[C@@H]1CCCN1S(=O)(=O)c1cc(Cl)cc(Cl)c1 (stereo partly drawn)
0.054,half-life [3]: 1.9 h; IC50 (Integrin alpha-4/beta-7): 13 µM; half-life [4]: 1.7 h; bioavailability [5]: 49%; clearance [6]: 3.3 mL/min/kg,O=C(O)[C@H]1C2CCC(C2)[C@@H]1NC(=O)[C@@H]1CCCN1S(=O)(=O)c1cc(Cl)cc(Cl)c1 (stereo partly drawn)
0.095,,O=C(O)C1C2CCC(C2)[C@@H]1NC(=O)[C@@H]1CCCN1S(=O)(=O)c1cc(Cl)cc(Cl)c1 (stereo partly drawn) [listing 2 of 2 here]
,Activity (Integrin alpha-4/beta-1 [2]): 43%,O=C(O)Cc1cccc(NC(=O)[C@@H]2CCCN2S(=O)(=O)c2cc(Cl)cc(Cl)c2)c1
0.299,,O=C(O)C1C2CCC(C2)[C@H]1NC(=O)[C@@H]1CCCN1S(=O)(=O)c1cc(Cl)cc(Cl)c1 (stereo partly drawn) [listing 2 of 2 here]
,Activity (Integrin alpha-4/beta-1 [2]): 2%,O=C(O)c1cccc(NC(=O)[C@@H]2CCCN2S(=O)(=O)c2cc(Cl)cc(Cl)c2)c1
2.16,,O=C(O)C1C2C=CC(C2)[C@@H]1NC(=O)[C@@H]1CCCN1S(=O)(=O)c1cc(Cl)cc(Cl)c1 (stereo partly drawn) [listing 2 of 2 here]
9.46,,O=C(O)[C@H]1CCCC[C@H]1NC(=O)[C@@H]1CCCN1S(=O)(=O)c1cc(Cl)cc(Cl)c1
0.462,,CC(C)[C@@H](C(=O)NC1CCCCC1C(=O)O)N(C)S(=O)(=O)c1cc(Cl)cc(Cl)c1 (stereo partly drawn)
,Activity (Integrin alpha-4/beta-1 [2]): 11%,O=C(O)Cc1ccccc1NC(=O)[C@@H]1CCCN1S(=O)(=O)c1cc(Cl)cc(Cl)c1
2.74,,O=C(O)[C@H]1C2CCC(CC2)[C@@H]1NC(=O)[C@@H]1CCCN1S(=O)(=O)c1cc(Cl)cc(Cl)c1

# — ChEMBL document CHEMBL1146302, “Highly constrained bicyclic VLA-4 antagonists” (Bioorg Med Chem Lett, 2007)
